From paper PMC7298712 (mBio, 2020) come the findings set out here.

The test deals with Risk1 (RT0135; rRisk1 WT) (Rickettsia typhi, UniProt Q68XM2). The format is biochemical.
Chain of Risk1 (RT0135; rRisk1 WT) (Q68XM2 1-707): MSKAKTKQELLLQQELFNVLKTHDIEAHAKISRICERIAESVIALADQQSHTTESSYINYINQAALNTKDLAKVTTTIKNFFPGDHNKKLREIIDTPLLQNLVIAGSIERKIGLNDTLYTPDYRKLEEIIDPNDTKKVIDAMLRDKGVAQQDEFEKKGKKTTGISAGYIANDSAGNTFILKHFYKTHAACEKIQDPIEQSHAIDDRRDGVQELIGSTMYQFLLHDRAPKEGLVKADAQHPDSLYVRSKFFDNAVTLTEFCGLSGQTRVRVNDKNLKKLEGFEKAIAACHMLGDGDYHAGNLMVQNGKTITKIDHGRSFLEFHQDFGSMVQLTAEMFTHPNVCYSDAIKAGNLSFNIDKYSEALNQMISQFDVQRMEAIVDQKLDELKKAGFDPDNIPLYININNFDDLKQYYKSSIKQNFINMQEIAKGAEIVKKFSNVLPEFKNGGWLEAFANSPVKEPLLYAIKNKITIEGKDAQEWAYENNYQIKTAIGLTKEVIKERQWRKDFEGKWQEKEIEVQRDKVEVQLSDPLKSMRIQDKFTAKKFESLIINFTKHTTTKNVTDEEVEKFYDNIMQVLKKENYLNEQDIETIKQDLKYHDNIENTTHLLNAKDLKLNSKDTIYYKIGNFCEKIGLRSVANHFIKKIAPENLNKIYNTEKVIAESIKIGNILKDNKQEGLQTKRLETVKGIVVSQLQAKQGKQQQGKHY

Take `COC[C@H]1OC(=O)c2coc3c2[C@@]1(C)C1=C(C3=O)[C@@H]2CCC(=O)[C@@]2(C)C[C@H]1OC(C)=O` [wortmannin]: the “ADP-Glo in vitro kinase assay, inhibition” value was “preincubation with wortmannin significantly inhibited, in a concentration-dependent manner”.
